Laboratory results published in paper PMC3130785, “Small Compound 6-O-Angeloylplenolin Induces Mitotic Arrest and Exhibits Therapeutic Potentials in Multiple Myeloma” (PLoS ONE, 2011).

Experiments:
MM.1S cells = assay: MTT assay, 6-OAP combined with Dox, Dex or BOR; format: cell-based, human; conditions: 48 h, 6-OAP 5 µM, in particular Dox and BOR
Description: (§1) U266, RPMI 8226 cells (1×10^4), primary CD138+ cells, PBMCs (5×10^4), and BMSCs (1×10^4) were cultured in 96-well dishes and incubated without or with 6-OAP at indicated concentration for 48 h. MM.1S and MM.1R cells (2×10^4) were seeded into 96-well dishes and pre-cultured for 24 h, then treated with 6-OAP for 48 h. Cell proliferation was determined by MTT assay. Cell viability was estimated by trypan blue dye exclusion.
(§2) Figure 4 6-OAP enhances cytotoxicity of Dox, Dex and BOR to MM cells. (A through C) MM.1S cells were treated for 48 h with Dox (A), Dex (B) or BOR (C) in the presence or absence of 6-OAP at 5 µM. MTT assay was used to test the proliferation of MM.1S cells. (D) MM.1R cells were treated for 48 h with Dex in the presence or absence of 6-OAP at 7.5 µM. MTT assay was used to test the proliferation of MM.1R cells. *p<.001,** p<.05. (E) MM.1S cells were cultured with control media (con), 6-OAP (O, 5 µM), BOR (B, 3 nM), or 6-OAP (5 µM) plus BOR (3 nM) (OB) for indicated time points. Cells were then lysed and subjected to Western blotting using indicated antibodies. CF, cleavage fragment.

RPMI 8226 = assay: MTT cell proliferation assay; format: cell-based; conditions: Homo sapiens, 48 h
Description: as §1

U266 = assay: MTT cell proliferation assay; format: cell-based; conditions: Homo sapiens, U-266, 48 h
Description: as §1

MM.1S = assay: MTT cell proliferation assay; format: cell-based; conditions: Homo sapiens, MM1.S, 48 h
Description: as §1

MM.1R = assay: MTT cell proliferation assay; format: cell-based; conditions: Homo sapiens, 48 h
Description: as §1

MM.1R cells = assay: MTT assay, Dex with or without 6-OAP; format: cell-based, human; conditions: 48 h, 6-OAP 7.5 µM
Description: as §1, §2

Bacillus subtilis = tested on: Bacillus subtilis; set-up: method as in PMID 9461679, PMID 8657743, PMID 12521264; conditions: cited from earlier work
cyclin D1 = assay: Western blotting; format: cell-based, human; conditions: U266 and MM1.S cells; 12 to 48 h
Description: (§3) Cell pellets were lysed in RIPA buffer containing 50 mM Tris pH 8.0, 150 mM NaCl, 0.1% SDS, 0.5% deoxycholate, 1% NP-40, 1 mM DTT, 1 mM NaF, 1 mM sodium vanadate, and protease inhibitors cocktail (Sigma). For immunoprecipitations, cells were lysed on ice for 15 minutes in RIPA buffer. Lysates were centrifuged. The supernatant was incubated with indicated antibodies overnight, after which protein A/G Plus beads (Santa Cruz Biotechnology) were added and incubated for 3 h. The beads were washed 4 times in RIPA buffer. Then the beads were resuspended in 1× sample buffer and boiled for 3 min. Protein extracts were quantitated and loaded on 8% to 12% sodium dodecyl sulfate polyacrylamide gel, electrophoresed, and transferred to a nitrocellulose membrane (Whatman). The membrane was incubated with primary antibody, washed, and incubated with horseradish peroxidase (HRP)–conjugated secondary antibody (Pierce). Detection was performed by using a chemiluminescent western detection kit (Cell Signaling). […]
(§4) Figure 3 6-OAP accumulates cyclin B1 which is required for mitotic arrest. […] After co-incubation with 6-OAP for 18 h, the cells were then harvested and detected by Leica DMI 400B microscope (D), or analyzed by flow cytometry for the cell cycle distribution (E). To evaluate cell growth, the cells were treated with 6-OAP for indicated time points and analyzed by trypan blue exclusion assay (F). […] (H) U266 cells were treated without or with 7.5 µM 6-OAP for 24 h, and stained with anti-α-tubulin and anti-BubR1 antibodies to visualize microtubules (green), BubR1 (red), and DAPI to counter stained DNA (blue), and analyzed by confocal microscopy. […]

pCdc2 (Y15) = assay: Western blotting; format: cell-based, human; conditions: U266, MM.1S and CD138+ primary cells
Description: as §3, §4

cyclin B1 = assay: Western blotting; format: cell-based, human; conditions: U266, MM.1S and CD138+ primary cells
Description: as §3, §4

pERK1/2 = assay: Western blotting, 6-OAP/BOR; format: cell-based, human; conditions: MM.1S; 6-OAP 5 µM for 6 h
Description: as §3

CC=C(C)C(=O)OC1C2C(CC(C)C3C=CC(=O)C31C)OC(=O)C2C (centres unmarked) [6-OAP, 6-O-angeloylplenolin]
effect on cytotoxicity of Dox, Dex, BOR (MM.1S cells): significantly enhanced cytotoxicity | IC50 (RPMI 8226): 3.5 ± 0.3 µM | IC50 (U266): 8.6 ± 0.5 µM | IC50 (MM.1S): 6.1 ± 0.4 µM | IC50 (MM.1R): 9.2 ± 2.1 µM | effect on inhibitory effect of Dex (MM.1R cells): drastically potentiated inhibitory effect | antibacterial activity (Bacillus subtilis): exhibit antibacterial activity | cyclin D1 level (cyclin D1): down-regulated | pCdc2 (Y15) level (pCdc2 (Y15)): decrease of tyrosine-15-phosphorylated Cdc2 | cyclin B1 level (cyclin B1): increase of cyclin B1 | phosphorylated ERK1/2 (pERK1/2): induced an increase in phosphorylated ERK1/2
